Source: patent US9532980B2, “Methods for the treatment of A-β related disorders and compositions therefor” (The Rockefeller University, priority 2006, dated 2017)

Experiments:
[1] = test system: Aβ peptide production in N2A cells expressing APP-695; experiment: Endogenous Aβ peptide production in N2A cells expressing APP-695 (sandwich ELISA, immunoprecipitation/western blot); type: cell-based; conditions: for decrease for Aβ40 peptide / decrease for Aβ42 peptide: 50 μM, three hours, N2A cells expressing APP-695
Method: (§1) N2A-APP695 cells are plated in 12-well dishes at a density of 3×10^5 cells per well in DMEM/Opti-MEM medium containing 5% Fetal Bovine Serum (FBS) following manufacturer's instructions (American Type Culture Collection).=For the time-course experiments, cells are exposed to drugs for 1-24 h.
2003 Oct. 14; 100(21):12444-9.
We next investigated the effect of the three different classes of CK1 inhibitors CKI-7, IC-261, and D4476 (Chijiwa, T., et al. (1989) J Biol Chem 264, 4924-7; Mashhoon, N., et al. (2000) J Biol Chem 275, 20052-60; Rena, G., et al. (2004) EMBO Rep 5, 60-5) on Aβ peptide production in N2A cells expressing APP-695.

[2] = test system: N2A-APP695 cells; experiment: Cell viability: lactate dehydrogenase release into media (CytoTox96 kit); type: cell-based
Source text: To exclude the possibility that the inhibitory effects on Aβ peptide production are due to cellular toxicity, we investigated the effects of the drugs on cell viability. Media are collected and tested for the level of lactate dehydrogenase, a stable cytosolic enzyme released upon cell lysis, using a non-radioactive CytoTox96 kit (Promega). Values obtained from drug treated cells are compared with values obtained with DMSO and non-treated cells. No toxicity is observed for CKI-7, even after 24 hours of incubation and for the highest concentration tested (50 μM). A slight toxicity (less than 1-fold) is observed for D4476, only for the higher dose tested (50 μM) and only after 24 hours of incubation.

[3] = test system: Notch cleavage; experiment: mNotchΔE Notch-1 cleavage assay in N2A cells (western blot, NICD); type: cell-based; conditions: N2A cells over-expressing mNotchΔE, 3 hours
Method: mNotchΔE Transfection and Notch-1 Cleavage Assays in N2A-APP695 Cells: N2A cells stably overexpressing APP Swedish mutant are transiently transfected to overexpress mNotchE (truncated Notch-1, lacking most of the Notch extracellular domain (Kopan, R., et al. (1996) Proc Natl Acad Sci USA 93, 1683-8). Cultures are preincubated with the different inhibitors for 3 hours. mNotchΔE is detected in cell lysates by western blot analysis using the Cleaved Notch 1 antibody (NICD) available from Cell Signaling.
Several protein kinases and protein phosphatases have been implicated in the progression of Alzheimer's disease and especially in the regulation of β-amyloid formation. These include the protein kinases PKA, PKC, GSK3-β and CDK5, and the protein phosphatases PP1/PP2A and PP2B. […] Unfortunately, these effects are associated with increased carcinogenic risk. […] We therefore investigated the effect of CK1 inhibitors on Notch processing. Briefly, N2A cells transiently transfected with N-terminally truncated mNotchΔE-myc cDNA containing plasmid are incubated with 1, 10 μM concentrations of DAPT, 1,10 μM concentrations of L-685,458, 5, 50 μM concentrations of D4476 or 1, 10 μM concentrations of Gleevec for 3 hours. Cell lysates are analysed by conventional SDS-PAGE analysis and western blotting using anti-Notch (NICD cleavage product), anti-Aβ, anti-myc and anti-actin antibodies.

[4] = test system: Aβ40 and Aβ42 peptide production in N2A-APP695 cells transiently expressing CK1ε-271; experiment: Aβ40/Aβ42 ELISA in N2A-APP695 cells transiently expressing constitutively active CK1ε-271; type: cell-based; conditions: for effect on Aβ40 and Aβ42 peptide concentration/production: increasing concentrations, 3 hours incubation, ELISA
Method: as §1
Transfection: Transfection of N2A-APP695 cells is performed by standard methods. Cells are grown to 60% confluence and then transfected with relevant constructs with FUGENE6 according to the manufacturer's protocol (Roche Applied Bioscience). After transfection, cells are recovered with 100 μl of RIPA buffer, incubated for 30 min on ice, and centrifuged at 13,000 rpm 20 min at 4° C. The supernatants are collected and submitted to BCA (Pierce) quantification accordingly to manufacturer's instructions. Equal amounts of cell extracts are loaded onto 4-12% Bis-Tris acrylamide gels (Invitrogen) with MES buffer and subjected to western blot analysis using appropriate antibodies. For immunoprecipitation assays, media are incubated with antibody 4G8 (Signet) to detect Aβ and full length βAPP. Drugs are added to cell cultures in fresh medium (0.5% fetal bovine serum); media and cells are collected at the relevant time.
N2A cells stably expressing APP-695 are transiently transfected with CK1ε-271. 48 hours post-transfection, cells are incubated in the absence or presence of increasing concentrations of CK1 inhibitor IC261. Cell supernatants are collected after 3 hours of incubation and subjected to Aβ40/Aβ42 ELISA assays. […] In order to exclude non-specific effects of IC261, two other CK1 inhibitors, CKI-7 and D4476 are tested.

[5] = test system: APP, βCTF and Aβ40 peptide levels in N2A-APP695 cells; experiment: APP, βCTF and Aβ40 levels in N2A-APP695 cells (western blot, Aβ40 ELISA); conditions: 50 μM, 3 hours
Method: Aβ quantification: After immobilization of total Aβ (coated monoclonal antibody specific for the N-terminus of Aβ from media, Aβ40/42 peptide determinations are made by sandwich ELISA (BioSource International) using rabbit polyclonal antibodies specific for the C-terminus of Aβ40 or Aβ42. In all cases, Aβ levels are normalized to total protein levels.
The effects of D4476 on APP, βCTF and Aβ40 peptide levels in N2A-APP695 cells are compared. N2A cells are incubated for 3 hours with 0, 1, 5 or 50 μM concentrations of D4476. Cellular extracts are subjected to western blotting analysis using βCTF or APP antibodies, or to Aβ40 ELISA assays. […] Data for at least three experiments (mean±S.E.M.) are compared (Prism) with the control conditions (no drug).

[6] = test system: CK1; conditions: Rena et al. (2004) EMBO Rep 5, 60-5; cited from earlier work
[7] = test system: APP-C99 in N2A cells; experiment: C99 breakdown and Aβ production in N2A cells transiently transfected with APP-C99; conditions: 3 hours
Method: Cellular extracts are subjected to western blotting analysis using βCTF or APP antibodies, or to Aβ40 ELISA assays. N2A cells are transiently transfected with a APP-C99 containing plasmid. […] Cell lysates are analyzed by SDS-PAGE and western blotting analysis or by Aβ40 ELISA assay. Data for at least three experiments (mean±S.E.M.) are compared (Prism) with the control conditions (no drug).

[8] = CK1ε-271 over-expressing N2A-APP695 cells

**Q.** What does the source list for NCCNS(=O)(=O)c1ccc(Cl)c2ccncc12 [CKI-7]?
**A.** decrease for Aβ40 peptide [1]: 14.8%; decrease for Aβ42 peptide [1]: 24%; toxicity (lactate dehydrogenase release) ([2]; 24 hours of incubation, highest concentration tested (50 μM)): No toxicity; Notch cleavage [3]: not affected; effect on Aβ40 and Aβ42 peptide concentration/production [4, 8]: significant and dose-dependent reduction

**Q.** Which “decrease for Aβ40 peptide” value [1] does the source give for NC(=O)c1ccc(-c2nc(-c3ccc4c(c3)OCCO4)c(-c3ccccn3)[nH]2)cc1 [D4476, 4-(4-(2,3-dihydrobenzo[1,4]dioxin-6-yl)-5-pyridin-2-yl-1H-imidazol-2-yl)benzamide] here?
**A.** 42%

**Q.** And the “decrease for Aβ42 peptide” value [1]?
**A.** 54.1%

**Q.** And the APP expression level [5]?
**A.** no effect

**Q.** What about the Aβ peptide production [5] of the same compound?
**A.** considerably reduces

**Q.** What about the βCTF levels [5] of the same compound?
**A.** significantly increases

**Q.** What about the “concentration required to observe an effect on CK1 activity in cell lines” value [6] of the same compound?
**A.** 50 µM

**Q.** What about the “toxicity (lactate dehydrogenase release), fold” value ([2]; slight toxicity only at 50 μM and only after 24 hours, compared with DMSO and non-treated cells) of the same compound?
**A.** less than 1 fold

**Q.** What about the Notch cleavage [3] of the same compound?
**A.** not affected

**Q.** And the “effect on Aβ40 and Aβ42 peptide concentration/production” value [4, 8]?
**A.** significant and dose-dependent reduction

**Q.** And the “lowest concentration at which effects on C99 breakdown and Aβ production are apparent” value [7]?
**A.** 5 µM

**Q.** What about the Aβ peptide production ([7]; various concentrations) of the same compound?
**A.** decreased Aβ peptide production in a dose dependent manner

**Q.** And the “breakdown of C99” value ([7]; various concentrations)?
**A.** inhibited the breakdown of C99

**Q.** Which Notch cleavage [3] does the source give for C[C@H](NC(=O)Cc1cc(F)cc(F)c1)C(=O)N[C@H](C(=O)OC(C)(C)C)c1ccccc1 [DAPT] here?
**A.** total inhibition

**Q.** For COc1cc(OC)c(/C=C2/C(=O)Nc3ccccc32)c(OC)c1 [IC261, (3E)-3-[(2,4,6-trimethoxyphenyl)methylidene]-1 H-indol-2-one], which “decrease for Aβ40 peptide” value [1] is on record?
**A.** 48%

**Q.** What about the “decrease for Aβ42 peptide” value [1] of the same compound?
**A.** 52.4%

**Q.** What about the “toxicity (lactate dehydrogenase release)” value ([2]; after 12 hours of incubation) of the same compound?
**A.** No effect on toxicity

**Q.** And the Notch cleavage [3]?
**A.** not affected

**Q.** And the “concentration at which the effect on Aβ40/Aβ42 is near maximum” value ([4]; CK1ε-271 over-expressing N2A-APP695 cells, 3 hours)?
**A.** 5 µM

**Q.** And the “effect on Aβ40 and Aβ42 peptide concentration/production” value [4, 8]?
**A.** dramatic reduction

**Q.** And the “time dependence of the reduction of Aβ40 and Aβ42 peptide concentration” value ([4]; longer exposure gives greater reduction)?
**A.** time-dependent effect

**Q.** For NC(=O)c1ccc(-c2nc(-c3ccc4c(c3)OCO4)c(-c3ccccn3)[nH]2)cc1 [SB-431542, 4-(4-(benzo[1,3]dioxol-5-yl)-5-pyridin-2-yl-1H-imidazol-2-yl)benzamide], which “properties on Aβ peptide formation compared with D4476” value [1] is on record?
**A.** very comparable properties
